# Source: US9475779B2, “Substituted bicyclic dihydropyrimidinones and their use as inhibitors of neutrophil elastase activity” (priority 2014, dated 2016)
# Where two headings read alike, the source gives them in different places.
# What was measured:
# cytochrome P450 2C8 = cytochrome P450 2C8 (Homo sapiens (Human), UniProt P10632); test: biochemical
# cytochrome P450 2C19 = cytochrome P450 2C19 (Homo sapiens (Human), UniProt P33261); test: biochemical
# cytochrome P450 2C9 = cytochrome P450 2C9 (Homo sapiens (Human), UniProt P11712); test: biochemical
# Chain of cytochrome P450 2C9 (P11712 whole entry, looked up): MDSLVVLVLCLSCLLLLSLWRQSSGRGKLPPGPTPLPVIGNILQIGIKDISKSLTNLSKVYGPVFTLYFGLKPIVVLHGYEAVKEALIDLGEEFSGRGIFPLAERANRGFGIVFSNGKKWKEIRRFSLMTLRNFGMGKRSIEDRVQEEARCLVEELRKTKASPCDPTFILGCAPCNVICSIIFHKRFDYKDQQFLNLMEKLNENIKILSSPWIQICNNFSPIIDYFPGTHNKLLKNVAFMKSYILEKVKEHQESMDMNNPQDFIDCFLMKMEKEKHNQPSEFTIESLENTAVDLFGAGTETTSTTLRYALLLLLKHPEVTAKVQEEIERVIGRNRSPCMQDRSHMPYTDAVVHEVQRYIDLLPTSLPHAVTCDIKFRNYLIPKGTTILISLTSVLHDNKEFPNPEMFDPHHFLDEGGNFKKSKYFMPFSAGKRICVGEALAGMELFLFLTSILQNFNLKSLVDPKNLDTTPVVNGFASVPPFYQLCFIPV
# physchem = format: physicochemical; conditions: for solubility at 24 h: McIlvaine buffer pH 6.8 containing 2.5% DMSO, pH 6.8, aqueous buffer, kinetic from dmso stock, McIlvaine buffer pH 6.8, 2.5% DMSO
# neutrophil elastase [1] = target: T1, neutrophil elastase (Homo sapiens (Human), UniProt P08246); test: biochemical
# T1 sequence (P08246 whole entry, looked up): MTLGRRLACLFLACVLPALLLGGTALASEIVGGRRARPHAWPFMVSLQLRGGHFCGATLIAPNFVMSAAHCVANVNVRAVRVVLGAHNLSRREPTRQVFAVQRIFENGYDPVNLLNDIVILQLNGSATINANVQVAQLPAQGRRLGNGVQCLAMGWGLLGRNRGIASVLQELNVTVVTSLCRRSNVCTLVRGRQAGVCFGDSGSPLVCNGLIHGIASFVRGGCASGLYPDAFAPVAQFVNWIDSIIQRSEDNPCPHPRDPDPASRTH
# hERG potassium channel = hERG potassium channel (Homo sapiens (Human), UniProt Q12809); test: in vitro
# neutrophil elastase [2] = target: T1, neutrophil elastase; test: biochemical; format: biochemical
# Protocol: Human Neutrophil Elastase Assay
# All other materials were of the highest grade commercially available.
# The following buffers were used: Compound buffer: 100 mM Tris, 500 mM NaCl, adjusted to pH 7.5; Assay buffer: 100 mM Tris, 500 mM NaCl, adjusted to pH 7.5, containing 0.01% BSA.
# Assay conditions: Test compounds were prediluted in DMSO and subsequently in compound buffer (5% DMSO final). […] After inactivation of the enzyme, fluorescence intensities were measured at 380 nm excitation and 460 nm emission wavelengths.
# Each plate contains wells with a high value control (DMSO+enzyme+substrate) and wells with a low value control (DMSO+inactivated enzyme+substrate). IC50 values were estimated using a sigmoidal concentration response curve with variable slope. Means of low values were taken as 0%, means of high values as 100%.
# in vitro = in vitro ADME; conditions: human, pH 7.2, 37° C.; for Papp A→B at 10 μM: Caco-2, pH 7.2, Caco-2, apical-to-basal, read-out: PEAB; for Papp B→A at 10 μM: Caco-2, pH 7.2, Caco-2, basal-to-apical, read-out: PEBA
# [3] = Metabolic stability with human liver microsomes; format: in vitro ADME; conditions: for half-life at 1 μM: human, pH 7.6, pooled human liver microsomes, read-out: t1/2 INVITRO
# Caco-2 cells = test: in vitro; format: in vitro ADME; conditions: pH 7.2
# [4] = pooled human liver microsomes, 1 μM test compound, 37° C.
# Chain of cytochrome P450 2C19 (P33261 whole entry, looked up): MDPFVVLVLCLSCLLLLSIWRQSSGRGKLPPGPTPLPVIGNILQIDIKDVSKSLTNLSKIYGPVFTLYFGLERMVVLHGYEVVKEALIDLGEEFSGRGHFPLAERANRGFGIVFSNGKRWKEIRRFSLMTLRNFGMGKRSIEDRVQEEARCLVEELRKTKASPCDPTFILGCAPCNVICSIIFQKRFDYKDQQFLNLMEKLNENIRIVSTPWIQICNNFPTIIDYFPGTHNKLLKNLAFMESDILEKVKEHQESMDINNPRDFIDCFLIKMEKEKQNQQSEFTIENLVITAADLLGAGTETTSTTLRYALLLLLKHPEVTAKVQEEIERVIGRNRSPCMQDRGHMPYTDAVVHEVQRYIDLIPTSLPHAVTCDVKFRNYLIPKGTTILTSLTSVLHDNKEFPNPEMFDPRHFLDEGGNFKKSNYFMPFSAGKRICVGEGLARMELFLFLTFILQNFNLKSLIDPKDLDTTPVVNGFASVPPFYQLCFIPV
# Chain of cytochrome P450 2C8 (P10632 whole entry, looked up): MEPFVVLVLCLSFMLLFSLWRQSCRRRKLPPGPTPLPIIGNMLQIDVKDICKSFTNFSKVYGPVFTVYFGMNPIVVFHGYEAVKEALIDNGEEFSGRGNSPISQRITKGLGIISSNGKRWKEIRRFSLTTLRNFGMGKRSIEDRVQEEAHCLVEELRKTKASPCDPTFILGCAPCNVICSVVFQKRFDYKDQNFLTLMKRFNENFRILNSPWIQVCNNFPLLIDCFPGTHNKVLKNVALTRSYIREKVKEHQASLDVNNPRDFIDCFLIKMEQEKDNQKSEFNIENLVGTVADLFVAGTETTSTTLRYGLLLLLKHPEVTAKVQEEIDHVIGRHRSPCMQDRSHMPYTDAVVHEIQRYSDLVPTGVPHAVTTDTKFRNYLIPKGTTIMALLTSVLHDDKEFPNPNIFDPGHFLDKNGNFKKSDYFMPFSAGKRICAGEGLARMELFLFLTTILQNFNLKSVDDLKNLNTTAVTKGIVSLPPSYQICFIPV
Compound,solubility at 24 h (physchem) [µg/mL],EC50 (neutrophil elastase [1]) [nM],Papp A→B at 10 μM (in vitro) [×10⁻⁶ cm/s],Papp B→A at 10 μM (in vitro) [×10⁻⁶ cm/s],"half-life at 1 μM [3, 4] [h]",IC50 (neutrophil elastase [2]; read-out: IC50) [nM],further results
"CN1C(=O)N(c2cccc(C(F)(F)F)c2)C2=C(C(=O)CC2)C1c1ccc(C#N)cc1CO (single isomer, unassigned) [Example A.1A, 3-Hydroxymethyl-4-[3-methyl-2,5-dioxo-1-(3-trifluoromethyl-phenyl)-2,3,4,5,6,7-hexahydro-1H-cyclopentapyrimidin-4-yl]-benzonitrile]",58,2,53,98,–,–,IC50 (cytochrome P450 2C8): > 50000 nM; IC50 (cytochrome P450 2C19): > 50000 nM; IC50 (cytochrome P450 2C9): > 50000 nM; inhibition at 10 µM (hERG potassium channel): 7%; IC50 (neutrophil elastase [2]; IC50): < 1 nM
"CN1C(=O)N(c2cccc(C(F)(F)F)c2)C2=C(C(=O)CC2)C1c1ccc(C#N)cc1S(=O)(=O)CCCO (single isomer, unassigned) [Example B.1.3A]",93,–,9.9,130,1.52,–,–
"CN1C(=O)N(c2cccc(C(F)(F)F)c2)C2=C(C(=O)CC2)[C@H]1c1ccc(C#N)cc1[S+](C)[O-] (single isomer, unassigned) [Example C.1B, 3-Methanesulfinyl-4-[3-methyl-2,5-dioxo-1-(3-trifluoromethyl-phenyl)-2,3,4,5,6,7-hexahydro-1H-cyclopentapyrimidin-4-yl]-benzonitrile]",–,1,–,41,–,< 1,"Aqueous solubility (physchem): 61 µg/mL; t1/2 INVITRO [3, 4]: 1.55 h; PEAB (Caco-2 cells): 3.7 ×10⁻⁶ cm/s"
"CC[S+]([O-])c1cc(C#N)ccc1C1C2=C(CCC2=O)N(c2cccc(C(F)(F)F)c2)C(=O)N1C (single isomer, unassigned) [Example C.5.1, 3-Ethanesulfinyl-4-[3-methyl-2,5-dioxo-1-(3-trifluoromethyl-phenyl)-2,3,4,5,6,7-hexahydro-1H-cyclopentapyrimidin-4-yl]-benzonitrile]",86,–,–,57,1.83,–,PEAB (Caco-2 cells): 7.1 ×10⁻⁶ cm/s
"CC[S+]([O-])c1cc(C#N)ccc1C1C2=C(CCC2=O)N(c2cccc(C(F)(F)F)c2)C(=O)N1C (single isomer, unassigned) [Example C.5.2, 3-Ethanesulfinyl-4-[3-methyl-2,5-dioxo-1-(3-trifluoromethyl-phenyl)-2,3,4,5,6,7-hexahydro-1H-cyclopentapyrimidin-4-yl]-benzonitrile]",–,–,–,–,–,–,Aqueous solubility (physchem): 69 µg/mL; t1/2 INVITRO [3]: >2.17 h; PEAB (Caco-2 cells): 16 ×10⁻⁶ cm/s; PEBA (Caco-2 cells): 82 ×10⁻⁶ cm/s
"CN1C(=O)N(c2ccnc(C(F)(F)F)c2)C2=C(C(=O)CC2)C1c1ccc(C#N)cc1S(C)(=O)=O (single isomer, unassigned) [Example D.1A, 3-Methanesulfonyl-4-[3-methyl-2,5-dioxo-1-(2-trifluoromethyl-pyridin-4-yl)-2,3,4,5,6,7-hexahydro-1H-cyclopentapyrimidin-4-yl]-benzonitrile]",–,–,19,81,> 2.17,–,inhibition at 10 µM (hERG potassium channel): 8%
"CCS(=O)(=O)c1cc(C#N)ccc1C1C2=C(CCC2=O)N(c2ccnc(C(F)(F)F)c2)C(=O)N1C (single isomer, unassigned) [Example D.3B, 3-Ethanesulfonyl-4-[3-methyl-2,5-dioxo-1-(2-trifluoromethyl-pyridin-4-yl)-2,3,4,5,6,7-hexahydro-1H-cyclopentapyrimidin-4-yl]-benzonitrile]",–,1,21,85,2,1.4,–
"CCNC(=O)N1C(=O)N(c2ccnc(C(F)(F)F)c2)C2=C(C(=O)CC2)C1c1ccc(C#N)cc1S(=O)(=O)CC (single isomer, unassigned) [Example D.4.1A, 4-(4-cyano-2-ethanesulfonyl-phenyl)-2,5-dioxo-1-(2-trifluoromethyl-pyridin-4-yl)-1,2,4,5,6,7-hexahydro-cyclopentapyrimidine-3-carboxylic acid ethylamide]",81,< 1,3.6,61,> 2.17,–,IC50 (neutrophil elastase [2]; IC50): < 1 nM
"CCS(=O)(=O)c1cc(C#N)ccc1C1NC(=O)N(c2cccc(C(F)F)c2)C2=C1C(=O)CC2 (single isomer, unassigned) [Example D.5A, 4-[1-(3-Difluoromethyl-phenyl)-2,5-dioxo-2,3,4,5,6,7-hexahydro-1H-cyclopentapyrimidin-4-yl]-3-ethanesulfonyl-benzonitrile]",67,1,7.5,78,> 2.17,–,IC50 (neutrophil elastase [2]; IC50): 2.2 nM
CNC(=O)N1C(=O)N(c2cc(C(F)(F)F)ccn2)C2=C(C(=O)CC2)C1c1ccc(C#N)cc1S(C)(=O)=O (centres unmarked) [D.4.4],–,2,3.1,60,> 2.17,< 1,–
CCNC(=O)N1C(=O)N(c2cc(C(F)(F)F)ccn2)C2=C(C(=O)CC2)C1c1ccc(C#N)cc1S(C)(=O)=O (centres unmarked) [D.4.5],78,1,7.3,67,> 2.17,< 1,–
"CN1C(=O)N(c2cccc(C(F)(F)F)c2)C2=C(C(=O)CC2)C1c1ccc(C#N)cc1C(C)(C)O (centres unmarked) [Example A.2, 3-(1-Hydroxy-1-methyl-ethyl)-4-[3-methyl-2,5-dioxo-1-(3-trifluoromethyl-phenyl)-2,3,4,5,6,7-hexahydro-1H-cyclopentapyrimidin-4-yl]-benzonitrile]",–,1,92,80,> 2.17,< 1,–
"CC(O)c1cc(C#N)ccc1C1C2=C(CCC2=O)N(c2cccc(C(F)(F)F)c2)C(=O)N1C (centres unmarked) [Example A.3, 3-(1-Hydroxy-ethyl)-4-[3-methyl-2,5-dioxo-1-(3-trifluoromethyl-phenyl)-2,3,4,5,6,7-hexahydro-1H-cyclopentapyrimidin-4-yl]-benzonitrile]",65,–,67,87,> 2.17,–,–
CN1C(=O)N(c2cccc(C(F)(F)F)c2)C2=C(C(=O)CC2)[C@H]1c1ccc(C#N)cc1S(=O)(=O)CCO [Example B.1.2B],73,1,12,120,> 2.17,–,IC50 (cytochrome P450 2C8): > 50000 nM; IC50 (cytochrome P450 2C19): > 50000 nM; IC50 (cytochrome P450 2C9): > 50000 nM; inhibition at 10 µM (hERG potassium channel): 12%; IC50 (neutrophil elastase [2]; IC50): < 1 nM
"CCS(=O)(=O)c1cc(C#N)ccc1C1C2=C(CCC2=O)N(c2cccc(C(F)F)c2)C(=O)N1C(=O)NC (centres unmarked) [Example D.7, 4-(4-Cyano-2-ethanesulfonyl-phenyl)-1-(3-difluoromethyl-phenyl)-2,5-dioxo-1,2,4,5,6,7-hexahydro-cyclopentapyrimidine-3-carboxylic acid methylamide]",–,–,–,–,–,< 1,–
"CS(=O)(=O)c1cc(C#N)ccc1C1C2=C(CCC2=O)N(c2cccc(C(F)(F)F)c2)C(=O)N1CCO (centres unmarked) [Example E.1, 4-[3-(2-Hydroxy-ethyl)-2,5-dioxo-1-(3-trifluoromethyl-phenyl)-2,3,4,5,6,7-hexahydro-1H-cyclopentapyrimidin-4-yl]-3-methanesulfonyl-benzonitrile]",–,–,–,–,–,–,"IC50 (neutrophil elastase [2]; Neutrophil Elastase assay, substrate MeOSuc-Ala-Ala-Pro-Val-AMC, read-out: IC50): < 1 nM"
